From PubChem BioAssay AID1963985 (Molecular Pharmacology Branch, DTP, NCI, 2024)

System: 252836-082-R-J2-PDC tumor spheroids, viability
Assay: Anticancer human tumor 252836-082-R-J2-PDC patient-derived head and neck squamous cell carcinoma cell line growth inhibition [PI3K]
Conditions: spheroids with HUVEC and MSC; for viability, T/C: stronger effect = lower value; active = viability on the fitted dose curve at most 10% of control; inactive = the rest
Method in brief: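 We assembled tumor spheroids that included a stromal compartment of HUVEC and MSCs, then exposed them to targeted agents alone and together with PI3K pathway inhibitors. Concentration series descended by half-log from clinically achievable Cmax levels. Viability served as the endpoint.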

[1] = curve of first compound, second compound 0.00316 µM
[2] = curve of first compound, second compound 0.01 µM
[3] = curve of first compound, second compound 0.0316 µM
[4] = curve of first compound, second compound 0.1 µM
[5] = curve of first compound, second compound 0.316 µM
[6] = curve of first compound, second compound 1 µM
[7] = second compound 0.00316 µM, first compound 0.0316 µM
[8] = second compound 0.00316 µM, first compound 0.1 µM
[9] = second compound 0.00316 µM, first compound 0.316 µM
[10] = second compound 0.00316 µM, first compound 1 µM
[11] = second compound 0.00316 µM, first compound 3.16 µM
[12] = second compound 0.00316 µM, first compound 10 µM
[13] = second compound 0.01 µM, first compound 0.0316 µM
[14] = second compound 0.01 µM, first compound 0.1 µM
[15] = second compound 0.01 µM, first compound 0.316 µM
[16] = second compound 0.01 µM, first compound 1 µM
[17] = second compound 0.01 µM, first compound 3.16 µM
[18] = second compound 0.01 µM, first compound 10 µM
[19] = second compound 0.0316 µM, first compound 0.0316 µM
[20] = second compound 0.0316 µM, first compound 0.1 µM
[21] = second compound 0.0316 µM, first compound 0.316 µM
[22] = second compound 0.0316 µM, first compound 1 µM
[23] = second compound 0.0316 µM, first compound 3.16 µM
[24] = second compound 0.0316 µM, first compound 10 µM
[25] = second compound 0.1 µM, first compound 0.0316 µM
[26] = second compound 0.1 µM, first compound 0.1 µM
[27] = second compound 0.1 µM, first compound 0.316 µM
[28] = second compound 0.1 µM, first compound 1 µM
[29] = second compound 0.1 µM, first compound 3.16 µM
[30] = second compound 0.1 µM, first compound 10 µM
[31] = second compound 0.316 µM, first compound 0.0316 µM
[32] = second compound 0.316 µM, first compound 0.1 µM
[33] = second compound 0.316 µM, first compound 0.316 µM
[34] = second compound 0.316 µM, first compound 1 µM
[35] = second compound 0.316 µM, first compound 3.16 µM
[36] = second compound 0.316 µM, first compound 10 µM
[37] = second compound 1 µM, first compound 0.0316 µM
[38] = second compound 1 µM, first compound 0.1 µM
[39] = second compound 1 µM, first compound 0.316 µM
[40] = second compound 1 µM, first compound 1 µM
[41] = second compound 1 µM, first compound 3.16 µM
[42] = second compound 1 µM, first compound 10 µM
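Note: spheroids exposed to agents for seven days before readout.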
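Throughout, for viability, T/C: percent of vehicle DMSO control viability so 100% = untreated growth.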

CC1(C)CCC(Nc2ncc(C(F)(F)F)c(-c3c[nH]c4c(P(C)(C)=O)c(C#N)ccc34)n2)CN1 (stereo not drawn) + COc1c(OCCCN2CCOCC2)ccc2c3n(c(=NC(=O)c4cnc(N)nc4)nc12)CCN3
inactive: viability, T/C [7] 30% | viability, T/C [8] 25.4% | viability, T/C [9] 25.2% | viability, T/C [10] 28.7% | viability, T/C [11] 34.5% | viability, T/C [12] 4.59% | viability, T/C [13] 24.9% | viability, T/C [14] 24.2% | viability, T/C [15] 25.5% | viability, T/C [16] 22.8% | viability, T/C [17] 26.4% | viability, T/C [18] 3.95% | viability, T/C [19] 22% | viability, T/C [20] 22.4% | viability, T/C [21] 22.7% | viability, T/C [22] 19.3% | viability, T/C [23] 22.3% | viability, T/C [24] 2.09% | viability, T/C [25] 15.1% | viability, T/C [26] 15.4% | viability, T/C [27] 17.4% | viability, T/C [28] 14.4% | viability, T/C [29] 18.4% | viability, T/C [31] 8.82%
< 31.6 nM: IC50 [1] | IC50 [2] | IC50 [3] | IC50 [4] | IC50 [5] | IC50 [6]
active: viability, T/C [30] 1.25% | viability, T/C [32] 8.24% | viability, T/C [33] 8.82% | viability, T/C [34] 8.38% | viability, T/C [35] 8.08% | viability, T/C [36] 0.63% | viability, T/C [37] 2.41% | viability, T/C [38] 2.58% | viability, T/C [39] 2.51% | viability, T/C [40] 3.28% | viability, T/C [41] 2.74% | viability, T/C [42] 0.56%

Cn1nccc1Nc1nccc(-c2ccn(C(CO)c3ccc(Cl)c(F)c3)c(=O)c2)n1 (stereo not drawn) + CC(Nc1ccc2c(c1)OCCn1cc(N3C(=O)OCC3C(F)F)nc1-2)C(N)=O
inactive: viability, T/C [7] 80.8% | viability, T/C [8] 90% | viability, T/C [9] 92.5% | viability, T/C [10] 85.4% | viability, T/C [11] 72.5% | viability, T/C [12] 61.9% | viability, T/C [13] 85.5% | viability, T/C [14] 78.7% | viability, T/C [15] 81% | viability, T/C [16] 89.7% | viability, T/C [17] 82.5% | viability, T/C [18] 58.1% | viability, T/C [19] 69.4% | viability, T/C [20] 74.2% | viability, T/C [21] 69.8% | viability, T/C [22] 75.8% | viability, T/C [23] 83.8% | viability, T/C [24] 44.6% | viability, T/C [25] 70.4% | viability, T/C [26] 58% | viability, T/C [27] 64.1% | viability, T/C [28] 64.6% | viability, T/C [29] 60.9% | viability, T/C [30] 40.4% | viability, T/C [31] 49.5% | viability, T/C [32] 50.3% | viability, T/C [33] 55.5% | viability, T/C [34] 50.1% | viability, T/C [35] 40.7% | viability, T/C [36] 28.6% | viability, T/C [37] 39.1% | viability, T/C [38] 43% | viability, T/C [39] 38.7% | viability, T/C [40] 38.6% | viability, T/C [41] 31.9% | viability, T/C [42] 22.6%
1070 nM: IC50 [5]
> 10000 nM: IC50 [1] | IC50 [2] | IC50 [3]
5840 nM: IC50 [4]
< 31.6 nM: IC50 [6]

C=CC(=O)N1CCN(c2nc(=O)n(-c3c(C)ccnc3C(C)C)c3nc(-c4c(O)cccc4F)c(F)cc23)C(C)C1 (stereo not drawn)
> 10000 nM: IC50 (curve of compound)
inactive: viability, T/C (compound 0.0316 µM) 98% [middle of 4 runs] | viability, T/C (compound 0.1 µM) 95.6% [middle of 4 runs] | viability, T/C (compound 10 µM) 99.2% [middle of 4 runs]
